Entries after “also recorded” stand apart in the source; their conditions may differ.
Tests used:
[1] = test system: RB1 mutated retinoblastoma; experiment: RXRG ligands on retinoblastoma cell growth; assay type: cell-based
Experimental: (§1) Colon, lung, pancreatic cancer, retinoblastoma and other cell lines were cultured in culture medium consisting of IMDM (Medium Lab, MSKCC, NY) with 10% FBS (SH3008803, HyClone, Thermo Scientific), 2 mM glutamine (Invitrogen), 55 μM beta-mercaptoethanol (Invitrogen), 1% Penicillin/streptomycin (Invitrogen), and 2.5 μg/ml Plasmocin (Invivogen), at 37° C. in a humidified incubator with 5% CO2. Melanoma cell lines were culture in RPMI with above additives.
(§2) Colon, lung, pancreatic, breast, prostate cancer cell lines and other cancer cell lines were cultured in 10 cm dishes or 24 well plates with complete IMDM or RPMI (for melanoma) with 30-50% confluence. […] DMSO was used for control. After 3-6 days treatment, cells were collected and counted with trypan blue. Dose-effectiveness curves were generated with series dilution of compounds in medium for treatment of cells.

RB177 = experiment: RXRG ligands on retinoblastoma cell growth; assay type: cell-based
Experimental: as §1, §2

H1650 = experiment: Drug treatment on cancer cell lines, cell counting; assay type: cell-based; conditions: EGFR mutated lung cancer
Source text: (§3) DMSO was used for control.

H1975 [2] = experiment: Drug treatment on cancer cell lines, cell counting; assay type: cell-based; conditions: EGFR mutated lung cancer
Source text: as §3

H3255 = experiment: Drug treatment on cancer cell lines, cell counting; assay type: cell-based; conditions: EGFR mutated lung cancer
Source text: as §3

H820 = experiment: Drug treatment on cancer cell lines, cell counting; assay type: cell-based; conditions: EGFR mutated lung cancer
Source text: as §3

PC930201 = experiment: Drug treatment on cancer cell lines, cell counting; assay type: cell-based; conditions: KRAS mutated pancreatic cancer (PC0201)
Source text: as §3

PC931019 [3] = experiment: Drug treatment on cancer cell lines, cell counting; assay type: cell-based; conditions: for cell growth: KRAS mutated pancreatic cancer (PC1019); for growth inhibition, single agent / effect of combination with HX531 on growth: day 9; for growth inhibition, single agent: 6 uM HX531, 10 uM PD98059, 100 nM PD0325901; for effect of combination with HX531 on growth: MEK inhibitor plus 6 uM HX531
Source text: as §3

PC941102 = experiment: Drug treatment on cancer cell lines, cell counting; assay type: cell-based; conditions: KRAS mutated pancreatic cancer (PC1102)
Source text: as §3

[4] = test system: EGFR and KRAS activated NSCLC, pancreatic, and colon cancers; experiment: Drug treatment on cancer cell lines, cell counting (group of lines); assay type: cell-based; conditions: for cell growth / proliferation: KRAS or EGFR mutant colon, NSCLC, pancreatic, hepatoma cells, concentration not given
Source text: as §3

[5] = test system: PTEN mutated prostate cancer, small cell lung cancer, and breast cancer; experiment: as above; assay type: cell-based; conditions: PTEN mutant lines as a group
Source text: as §3

A549 = experiment: Drug treatment on cancer cell lines, cell counting; assay type: cell-based; conditions: for effect of combination with HX531 on growth: MEK inhibitor plus HX531; for growth inhibition, single agent: day 3, 6 uM HX531, 10 uM PD98059, 100 nM PD0325901
Source text: as §3

HCT116 = experiment: Drug treatment on cancer cell lines, cell counting; assay type: cell-based; conditions: day 3; for growth inhibition, single agent: 6 uM HX531, 10 uM PD98059, 100 nM PD0325901; for effect of combination with HX531 on growth: MEK inhibitor plus 6 uM HX531
Source text: as §3

[6] = patients; cited from earlier work
H1755 = experiment: Drug treatment on cancer cell lines, cell counting; assay type: cell-based; conditions: UVI3003 10 uM (FIG. 23)
Source text: as §3

MDA-MB-468 = experiment: Drug treatment on cancer cell lines, cell counting; assay type: cell-based; conditions: UVI3003 10 uM (FIG. 23)
Source text: as §3

Saos2 = experiment: Drug treatment on cancer cell lines, cell counting; assay type: cell-based; conditions: UVI3003 10 uM (FIG. 23)
Source text: as §3

normal fibroblasts WI38 = experiment: Drug treatment on cell lines, cell counting; assay type: cell-based; conditions: UVI3003 10 uM (FIG. 23)
Source text: as §3

SCLC = experiment: Drug treatment on cancer cell lines, cell counting (group of lines); assay type: cell-based; conditions: UVI3003 10 uM (FIG. 23); some PTEN mutated SCLC
Source text: as §3

H1975 [7] = experiment: Cell cycle analysis; assay type: cell-based; conditions: EGFR mutant NSCLC, day 3
PC931019 [8] = experiment: Cell cycle analysis; assay type: cell-based; conditions: KRAS mutant pancreatic cancer, day 3
Experimental: After drug treatment, cells were collected for cell cycle analysis, RNA isolation, quantitative PCR, western blot, and immunofluorescence. For cell cycle analysis, retinoblastoma, neuroblastoma, lung, pancreatic, and colon cancer cells were collected and dissociated on days 3, 5, 7, 9, 11, and 16 after treatment. Cells were fixed by 70% cold ethanol alcohol while vortex, and put in −20° C. for storage. […] At 24 hours after treatment, 4 ug/ml Aphidicolin was added to cells with compounds for 24 hr. Aphidicolin was removed by centrifugation and PBS wash, and then added to new wells with fresh medium and compounds. Cells were collected and fixed before addition of aphidicolin, immediately after removal of aphidicolin, and every two hours thereafter until 16-18 hours.
The tubes with cells were taken out of the freezer and alcohol was removed by centrifugation. 150 ul of 0.06 mg/ml propidium iodide with 0.1% NF40 was added to the cells, and then 100 ul of 2 mg/ml of RNase was added to the cells. These were mixed well and incubated at 37° C. for 30 min. The cell ploidy according to DNA contents were measured in FACSCalibur with FL3-Width and FL3-Height as the parameter. Flowjo was used for analysis of the cell cycle changes.

Compound: CC1=C(/C=C/C(C)=C\C=C\C(C)=C\C(=O)O)C(C)(C)CCC1 [9 cis RA, 9-cis-Retinoic acid]
- retinoblastoma cell growth ([1]; in vitro): suppressed retinoblastoma cell growth
- cell growth (RB177): suppressed cell growth

Compound: CCCCCCOc1cc2c(cc1N(C)c1ncc(C(=O)O)cn1)C(C)(C)CCC2(C)C [PA452]
- cell growth (H1650): sensitive
- cell growth (H1975 [2]): sensitive
- cell growth (H3255): sensitive
- cell growth (H820): sensitive
- cell growth (PC930201): sensitive
- cell growth (PC931019 [3]): sensitive
- cell growth (PC941102): sensitive
- cell growth / proliferation [4]: efficiently suppress
- cell growth [5]: suppress the growth

Compound: COc1cccc(-c2cc(=O)c3ccccc3o2)c1N [PD98059]
- effect of combination with HX531 on growth (A549): synergistic effects
- growth inhibition, single agent (A549): moderate growth inhibition
- growth inhibition, single agent (HCT116): moderate growth inhibition
- effect of combination with HX531 on growth (HCT116): Synergistic effects
- growth inhibition, single agent (PC931019 [3]): growth inhibition
- effect of combination with HX531 on growth (PC931019 [3]): same synergistic effects

Compound: O=C(NOC[C@H](O)CO)c1ccc(F)c(F)c1Nc1ccc(I)cc1F [PD0325901]
- effect of combination with HX531 on growth (A549): synergistic effects
- growth inhibition, single agent (A549): moderate growth inhibition
- growth inhibition, single agent (HCT116): moderate growth inhibition
- effect of combination with HX531 on growth (HCT116): Synergistic effects
- growth inhibition, single agent (PC931019 [3]): growth inhibition
- effect of combination with HX531 on growth (PC931019 [3]): same synergistic effects
- outcome of clinical trial (toxicity) [6]: terminated because of high toxicity in patients

Compound: CCCCCOc1cc2c(cc1-c1cc(/C=C/C(=O)O)ccc1O)C(C)(C)CCC2(C)C [UVI3003]
- cell growth (H1650): sensitive
- relative cell number after treatment (H1755): sensitive
- cell growth (H1975 [2]): sensitive
- cell growth (H3255): sensitive
- cell growth (H820): sensitive
- relative cell number after treatment (MDA-MB-468): sensitive
- cell growth (PC930201): sensitive
- cell growth (PC931019 [3]): sensitive
- cell growth (PC941102): sensitive
- relative cell number after treatment (Saos2): not sensitive
- relative cell number after treatment (normal fibroblasts WI38): not sensitive
- relative cell number after treatment ([1]; UVI3003 10 uM (FIG. 23)): not sensitive
- cell growth / proliferation [4]: efficiently suppress
- relative cell number after treatment ([4]; UVI3003 10 uM (FIG. 23), incl. gastric cancer): sensitive
- cell growth [5]: suppress the growth
- relative cell number after treatment (SCLC): sensitive
- cell cycle, G1-S transition (H1975 [7]): inhibited G1-S transition
- cell cycle, G1-S transition (PC931019 [8]): similarly sensitive; also recorded: inhibited G1-S transition

From patent publication US20130324520A1, “RXRG MODULATORS FOR THE TREATMENT OF CANCER” (SLOAN-KETTERING INSTITUTE FOR CANCER RESEARCH, priority 2011, published 2013)
